In US8475862B2, “Isothiocyanate preservatives and methods of their use” (The Procter & Gamble Company, priority 2003, dated 2013):

Key:
[1] = Moisture sensitivity test: isothiocyanate suspended in aqueous phosphate buffer, level measured by supercritical fluid chromatography; type: physicochemical; conditions: white mustard essential oil suspended in aqueous phosphate buffer, pH about 3.6, about 20-23° C.
Experimental: As used herein, the term “moisture-sensitive” means that the isothiocyanate compound degrades in the presence of water. This degradation proceeds via a hydrolysis reaction, thereby leading to a reduction in level of the active isothiocyanate antimicrobial agent with time of storage in the presence of water. The method for determining moisture sensitivity is set forth in the Test Method section below. […]
These solutions are analyzed by supercritical fluid chromatography using the method described by Buskov, S. et al., “Supercritical fluid chromatography as a method of analysis for the determination of 4-hydroxybenzylglucosinolate degradation products,” Journal of Biochemical and Biophysical Methods, Vol. 43, pp 157-174 (2000) with the following modifications. […] The eluate is detected at 226 and 252 nm. […]
Moisture-sensitive isothiocyanate compounds are identified by suspending the isothiocyanate containing material in an aqueous phosphate buffer (pH of about 3.6) at room temperature. […] The extraction procedure is repeated after 24 hours and the level of residual isothiocyanate compound is measured by supercritical fluid chromatography. […]

[2] = system: four lactic acid spoilage bacteria (Lactobacillus fructivorans, L. fermentum, L. plantar and L. hilgardii); assay: Ketchup spoilage challenge, plate counts of inoculated lactic acid bacteria; type: cell-based; conditions: 250 CFU/gm inoculum, stored at 22° C.
Experimental: (§1) Ketchup is an acid food with a pH of 3.5-3.8 that can be cold filled at 100±20° F. in PET bottles. The product is vulnerable during filling operation at the filler, susceptible for recontamination by adventitious spoilage microorganisms such as lactic acid bacteria (LAB) and acid and preservative tolerant yeasts (APRY).
(§2) All natural tomato ketchup products were made, a first sample with sodium (ANK) and a second sample with reduced sodium (ANK-RS). Each sample was split, and to each about 150 ppm and 300 ppm 4-hydroxybenzyl isothiocyanate was added. The samples were further split (for a total of eight samples) and inoculated as follows. Microorganisms were inoculated into four samples with a cocktail consisting of four separate lactic acid spoilage bacteria (250 CFU/gm) such as Lactobacillus fructivorans, L. fermentum, L. plantar and L. hilgardii. The four remaining samples were inoculated with Zygosaccharomyces bailii—(150-200 CFU/gm) previously isolated from a ketchup spoilage incident.
(§3) A summary of the samples is as follows: • 1: ANK—150 ppm 4HBITC—inoculated with four lactic acid bacteria • 2: ANK—150 ppm 4HBITC—inoculated with Z. bailii • 3: ANK—300 ppm 4HBITC—inoculated with four lactic acid bacteria • 4: ANK—300 ppm 4HBITC—inoculated with Z. bailii • 5: ANK-RS—150 ppm 4HBITC—inoculated with four lactic acid bacteria • 6: ANK-RS—150 ppm 4HBITC—inoculated with Z. bailii • 7: ANK-RS—300 ppm 4HBITC—inoculated with four lactic acid bacteria • 8: ANK-RS—300 ppm 4HBITC—inoculated with Z. bailii
The inoculated ketchup samples were stored at 22° C. […] The lactic acid bacteria and yeasts counts were performed as described in FDA BAM manual. The plate counts were then used to identify the degree of microbial kill or stasis in the inoculated product. […] At 150 ppm, the declining trend was gradual taking 336 hours to non-detectable level for both ANK and ANK-RS. Un-inoculated controls grew to level of 1000-1500 CFU/gm. In the Z. bailii inoculated samples, counts were reduced to non-detectable level at 96 hours, both with and without 4-hydroxybenzyl isothiocyanate. However, there was no regrowth in the samples with 4-hydroxybenzyl isothiocyanate up to 336 hours (150 and 300 ppm). Regrowth was noticed around 96-108 hours ending at 1×10^6 CFU/gm in control samples without 4-hydroxybenzyl isothiocyanate.

Zygosaccharomyces bailii = assay: Ketchup spoilage challenge, plate counts of inoculated yeast; type: cell-based; conditions: 22° C.; for regrowth of Z. bailii up to 336 hours: controls regrew around 96-108 hours
Experimental: as §1, §2, §3
The inoculated ketchup samples were stored at 22° C. […] The lactic acid bacteria and yeasts counts were performed as described in FDA BAM manual. The plate counts were then used to identify the degree of microbial kill or stasis in the inoculated product. […] At 150 ppm, the declining trend was gradual taking 336 hours to non-detectable level for both ANK and ANK-RS. Un-inoculated controls grew to level of 1000-1500 CFU/gm. In the Z. bailii inoculated samples, counts were reduced to non-detectable level at 96 hours, both with and without 4-hydroxybenzyl isothiocyanate. […]

## Oc1ccc(CN=C=S)cc1 [4-hydroxybenzyl isothiocyanate]
[1]
  percent reduction in level of 4-hydroxybenzyl isothiocyanate after 24 hours: about 72%
[2]; ANK ketchup, 150 ppm
  time until lactic acid bacteria counts reduced to non-detectable level: 336 h
[2]; ANK ketchup, 300 ppm
  time until lactic acid bacteria counts reduced to non-detectable level: ≤ 96 h
[2]; ANK-RS (reduced sodium) ketchup, 150 ppm
  time until lactic acid bacteria counts reduced to non-detectable level: 336 h
[2]; ANK-RS (reduced sodium) ketchup, 300 ppm
  time until lactic acid bacteria counts reduced to non-detectable level: ≤ 168 h
Zygosaccharomyces bailii; 150-200 CFU/gm inoculum, same result with and without 4-hydroxybenzyl isothiocyanate
  time at which Z. bailii counts reduced to non-detectable level: 96 h
Zygosaccharomyces bailii; 150 ppm
  regrowth of Z. bailii up to 336 hours: no regrowth
Zygosaccharomyces bailii; 300 ppm
  regrowth of Z. bailii up to 336 hours: no regrowth
